{
  "source": "BindingDB's records for PubMed 39882870",
  "about": "(University of Modena and Reggio Emilia)",
  "biological_target": "Adenosine receptor A2a (Homo sapiens) (UniProt P29274)",
  "sequence (P29274 whole entry, looked up)": "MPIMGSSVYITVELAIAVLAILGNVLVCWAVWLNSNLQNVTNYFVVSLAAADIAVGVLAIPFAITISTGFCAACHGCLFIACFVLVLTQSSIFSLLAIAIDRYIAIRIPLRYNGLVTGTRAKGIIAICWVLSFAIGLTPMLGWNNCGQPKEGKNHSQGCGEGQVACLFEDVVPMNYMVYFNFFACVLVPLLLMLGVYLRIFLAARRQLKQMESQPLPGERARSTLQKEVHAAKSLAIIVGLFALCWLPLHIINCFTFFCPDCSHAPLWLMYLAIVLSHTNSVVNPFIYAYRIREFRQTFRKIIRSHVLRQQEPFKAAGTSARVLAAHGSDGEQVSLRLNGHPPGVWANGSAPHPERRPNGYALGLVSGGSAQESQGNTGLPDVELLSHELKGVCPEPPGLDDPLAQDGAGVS",
  "test": "Negative allosteric modulation of A2AR (unknown origin) expressed in CHO cells in presence of adenosine by CamBio assay",
  "data": [
    {"smiles": "N#Cc1c(N)nc(N2CCCCC2)c(C#N)c1-c1cccnc1", "values": [
      {"measurement": "IC50", "result": 9, "unit": "nM"}
    ]}
  ]
}
